Columns and labels:
Type in all cases: cell-based, human
THP-1 cells [1] = experiment: Cell viability by MTT assay in THP-1 cells; settings: purchased compound
Protocol: Two types of tetrazolium were used for viability assays. […] After 18 h of incubation, 0.5 mg/ml 3[4,5-dimethylthiazol-2-yl]-2,5-dipheyl tetrazolium bromide (MTT; Thermo Fisher Scientific) in assay media was added to each well at a final concentration of (0.5 mg/ml) and further incubated for 4-6 h. The absorbances at 570 and 650 nm were measured by a Tecan Infinite M200 plate reader, For RA FLS, the cells were dispersed into 96-well flat bottom plates (104/200 μL/well) and incubated overnight. The next day, RA FLS were treated with 5 μM of each compound for 18 h of incubation. Ten μl of WST-8 [2-(2-methoxy-4-nitrophenyl)-3-(4-nitrophenyl)-5-(2,4-disulfophewnyl)-2H-tetrazolium, monosodium salt] solution was added to each well and the cells were further incubated for 2-4 h. The absorbance was measured at 450 nm with Bio-Rad iMark plate reader (Bio-Rad Laboratories Inc., Hercules, CA, Unites States).

THP-1 cells [2] = experiment: IL-1ß stimulated CXCL8 release by THP-1 cells; settings: IL-1ß 2 ng/ml, overnight (FIG. 3C)
Protocol: (§1) THP-1 cells (10^5 cells/200 μL/well) and RA FLS (104/200 μL/well) were plated in 96 well plates and pre-treated with compound or vehicle for 1 h and then stimulated with either LPS (10 ng/ml), 1L-1ß (2 ng/ml) or TNF (2 ng/ml for THP-1 and 1 ng/ml for RA FLS). After 18 h of incubation, supernatants were collected and the levels of cytokines and chemokines in the culture supernatants were measured by ELISA according to the manufacturer's protocols (R&D systems, Minneapolis, MN).
(§2) The lead compounds belonging to chemotypes 1, 3, and 5 were tested for potency in suppressing chemokine and cytokine production by THP-1 cells in the presence of different inflammatory stimuli. The production of CXCL8 induced by either LPS (10 ng/ml), IL-1ß (2 ng/ml), or TNF (2 ng/ml) and TNF induced by IL-1ß (2 ng/ml) was assessed using serially diluted compounds. The compounds except 1-2 reduced the level of CXCL8 production stimulated by LPS in a dose dependent manner (FIG. 3A). However, the compounds from chemotype 5 enhanced CXCL8 release by THP-1 cells when stimulated with IL-111, or TNF (FIGS. 3B, C). […] The 1Cs0 for 1-1, 1-2 and 3-1 for IL-1ß stimulated CXCL8 release included 400, 1770, and 2020 nM, respectively, (FIG. 3C).

THP-1 cells [3] = experiment: IL-1ß stimulated TNF release by THP-1 cells; settings: THP-1 cells, IL-1ß 2 ng/ml, overnight (FIG. 3D)
Protocol: as §1, §2

THP-1 cells [4] = experiment: Combination and synergy of compounds with DEX, CXCL8 release by TNF stimulated THP-1 cells
Protocol: Drug synergy analysis was performed using lsobologram plots which were calculated according to reported procedures to compute IC50 and determine synergism. IC50 is computed from the median effect equation. Synergism analysis is carried out using the Combination index (Cl)-isobol method. Data analysis was performed using the CompuSyn software available on combisyn.com, Detailed methodology was used as described in a prior report. Briefly, the median-effect equation is computed to obtain the linear regression for the effect of inhibitors DEX and 1−1 as Fa/Fu=(D/D50)^m, where D is the dose; Fa and Fu is the fraction of the inhibition and uninhibited response by the dose D (Fa+Fu=1); D50 is the dose producing the median effect (i.e, IC50). The constant m determines the shape of the dose-effect curve. The median-effect equation in logarithmic form is log (Fa/Fu) =m log(D)−m log (D50) which essentially represents a linear relationship between log(Fa/Fu) and log(D). […] This is followed by Cl-isobol method to quantitatively assess the synergism between these inhibitor drugs. A combination index (Cl) is estimated from dose-effect data of single and combined drug treatments. A value of C; less than one indicates synergism; Cl=1 indicates additive effect; and Cl>1 indicates antagonism. Drug interaction (synergism or antagonism) is more pronounced the further a CI value is from 1. […] The doses Dx1 and Dx2 were estimated from the median effect equation above for single drug treatments. From the median effect equation, the estimated dose (i.e., D) necessary to produce the inhibition (i.e., Fa, Fu) obtained by the combination was calculated. The results are presented as a normalized isobolograrn. A point in the isobologram represents the effect of a drug(s) treatment.
To assess whether the remaining candidate compounds would provide additional benefit to a low dose of glucocorticoid, THP-1 cells were stimulated with TNF and treated them with serially diluted compounds and 100 nM DEX (FIGS. 4A-C). […] Next whether there was an additive or synergistic effect with these three compounds and DEX was formally addressed. […] The four CXCL8 levels below the maximum plateau were used to calculate an isobologram (FIG. 5D).

RA FLS = experiment: Cell viability of RA FLS by WST-8 assay; settings: WST-8 assay (FIG. 6F)
Protocol: Two types of tetrazolium were used for viability assays. For THP-1 cells, the cells were dispensed in 96-well plates (10^5 cells/200 μL/ well) and treated with 5 Oil of each compound. After 18 h of incubation, 0.5 mg/ml 3[4,5-dimethylthiazol-2-yl]-2,5-dipheyl tetrazolium bromide (MTT; Thermo Fisher Scientific) in assay media was added to each well at a final concentration of (0.5 mg/ml) and further incubated for 4-6 h. The absorbances at 570 and 650 nm were measured by a Tecan Infinite M200 plate reader, For RA FLS, the cells were dispersed into 96-well flat bottom plates (104/200 μL/well) and incubated overnight. The next day, RA FLS were treated with 5 μM of each compound for 18 h of incubation. Ten μl of WST-8 [2-(2-methoxy-4-nitrophenyl)-3-(4-nitrophenyl)-5-(2,4-disulfophewnyl)-2H-tetrazolium, monosodium salt] solution was added to each well and the cells were further incubated for 2-4 h. The absorbance was measured at 450 nm with Bio-Rad iMark plate reader (Bio-Rad Laboratories Inc., Hercules, CA, Unites States).

Cc1ccc(-n2ncc3c(NC4CCCCC4)ncnc32)c(C)c1 [Compound 1-1]
% Cellular Viability (Purchased) (THP-1 cells [1]): 98.7% | IC50 (THP-1 cells [2]): 400 nM | IC50 (THP-1 cells [3]): 190 nM | Effect of addition of DEX on CXCL8 production (THP-1 cells [4]; TNF 2 ng/ml stimulated THP-1 cells, serially diluted compound plus 100 nM DEX (FIGS. 4A-C)): significantly reduced the CXCL8 production at all of the effective doses | Synergy with DEX, isobologram of potency ratios for CXCL8 (THP-1 cells [4]; TNF stimulated THP-1 cells, compound and DEX titrated at same molarity (FIG. 5D)): demonstrating synergy | IC50 (THP-1 cells [4]; TNF stimulated THP-1 cells, single agents (FIG. 5A), read-out: IC50 for TNF stimulated CXCL8 release (titration with DEX)): 968 nM | Cytotoxicity in RA FLS (RA FLS): low cytotoxicity
